Data: patent US10242162B2 (LG Chem, Ltd., priority 2014, dated 2019)

Assay: Solubility measurement in water (Test Example)
Format: physicochemical
Conditions: 25° C., 1 atm, 24 hr
Protocol: In order to evaluate the validity of the method of determining the water insolubility according to the present invention in the Example and Comparative Example, the following testing was performed.

Row | water solubility (in words) (100 g of water) | SMILES | amount dissolved in 100 g of water [g]
1 |  | CCC(C)O (centres unmarked) [2-butanol] | 30
2 | approximated zero | c1ccc2ccccc2c1 [Bicyclo[4.4.0]deca-1,3,5,7,9-pentene] | 
